pIC50: −log10 of the molar value.
target: Epidermal growth factor receptor (Homo sapiens, UniProt P00533); assay: not given; details: not given
Sequence (P00533 whole entry): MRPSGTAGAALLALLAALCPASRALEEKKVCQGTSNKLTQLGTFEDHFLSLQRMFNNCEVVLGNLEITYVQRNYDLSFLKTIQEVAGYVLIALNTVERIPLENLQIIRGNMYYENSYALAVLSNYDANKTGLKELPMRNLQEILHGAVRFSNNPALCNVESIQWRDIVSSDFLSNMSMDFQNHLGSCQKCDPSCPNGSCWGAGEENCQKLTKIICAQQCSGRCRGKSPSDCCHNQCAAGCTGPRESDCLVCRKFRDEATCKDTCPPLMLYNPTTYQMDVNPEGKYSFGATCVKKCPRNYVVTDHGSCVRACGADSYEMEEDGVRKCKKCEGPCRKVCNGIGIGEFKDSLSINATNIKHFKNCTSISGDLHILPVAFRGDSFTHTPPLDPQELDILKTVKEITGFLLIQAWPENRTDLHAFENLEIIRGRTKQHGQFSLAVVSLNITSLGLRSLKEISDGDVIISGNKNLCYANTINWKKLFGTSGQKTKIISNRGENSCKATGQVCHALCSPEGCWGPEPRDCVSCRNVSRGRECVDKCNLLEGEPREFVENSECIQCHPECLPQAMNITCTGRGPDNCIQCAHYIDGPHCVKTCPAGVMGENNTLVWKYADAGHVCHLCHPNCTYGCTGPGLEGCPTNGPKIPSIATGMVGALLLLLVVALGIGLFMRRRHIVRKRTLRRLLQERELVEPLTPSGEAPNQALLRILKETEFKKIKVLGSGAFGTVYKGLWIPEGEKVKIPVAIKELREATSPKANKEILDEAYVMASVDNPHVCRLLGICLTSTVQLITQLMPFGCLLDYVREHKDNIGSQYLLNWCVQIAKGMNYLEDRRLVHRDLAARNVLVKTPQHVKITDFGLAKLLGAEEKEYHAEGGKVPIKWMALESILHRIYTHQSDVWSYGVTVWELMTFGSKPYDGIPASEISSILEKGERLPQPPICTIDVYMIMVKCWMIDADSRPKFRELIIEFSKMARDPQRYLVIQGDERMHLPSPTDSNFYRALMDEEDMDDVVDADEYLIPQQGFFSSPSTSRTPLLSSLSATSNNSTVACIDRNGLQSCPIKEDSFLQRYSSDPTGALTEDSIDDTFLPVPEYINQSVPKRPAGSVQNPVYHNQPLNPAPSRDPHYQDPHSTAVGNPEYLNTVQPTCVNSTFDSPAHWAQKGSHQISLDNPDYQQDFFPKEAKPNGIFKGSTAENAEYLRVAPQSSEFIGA

Row | SMILES | pIC50
1 | CN(C)c1ccc2ncnc(Nc3cccc(Br)c3)c2n1 | 8.01
2 | CN(C)c1ccc2c(Nc3cccc(Br)c3)ncnc2n1 | 6.48
3 | COc1ccc(CNc2cc3c(Nc4cccc(Br)c4)ncnc3cn2)cc1 | 8.63
4 | Brc1cccc(Nc2ncnc3cnc(NCCn4ccnc4)nc23)c1 | 8.63
5 | Cc1cccc(Nc2ncnc3cnc(NCCN4CCOCC4)nc23)c1 | 8.63
6 | O=C(O)CCCNc1c(Br)cccc1Nc1ncnc2ccncc12 | 9.55
7 | COc1cc2ncnc(Nc3ccc(Br)cc3)c2cc1OC | 10.14
8 | O=[N+]([O-])c1ccc2ncnc(Nc3cccc(Br)c3)c2c1 | 6.04
9 | CNc1cc2ncnc(Nc3cccc(Br)c3)c2cc1[N+](=O)[O-] | 7.16
10 | CNc1ncc2ncnc(Nc3ccccc3)c2n1 | 7.88
11 | COc1ccc2ncnc(Nc3ccccc3)c2c1 [listing 1 of 2 here] | 6.92
12 | Brc1cccc(Nc2ncnc3ccncc23)c1NCCCn1ccnc1 | 9.29
13 | COc1ccc2ncnc(Nc3ccccc3)c2c1 [listing 2 of 2 here] | 7.25
14 | COc1ccc2ncnc(Nc3cccc(Br)c3)c2c1 | 6.45
15 | CNc1ncc2ncnc(Nc3cccc(Br)c3)c2n1 | 9.11
16 | FC(F)(F)c1cccc(Nc2ncnc3ccccc23)c1 | 6.23
17 | OCCN(CCO)CCNc1c(Br)cccc1Nc1ncnc2ccncc12 | 8.03
18 | OCCN(CCO)c1c(Br)cccc1Nc1ncnc2ccncc12 | 7.92
19 | Cc1cccc(Nc2ncnc3ccncc23)c1NCCCN1CCN(C)CC1 | 8.25

Row | SMILES | pIC50
20 | CN(C)CCCCNc1c(Br)cccc1Nc1ncnc2ccncc12 | 8.13
21 | CC(=O)Nc1ccc2c(Nc3cccc(Br)c3)ncnc2c1 | 7.39
22 | OCCN(CCO)CCCNc1c(Br)cccc1Nc1ncnc2ccncc12 | 8.92
23 | CCCOc1cc2ncnc(Nc3cccc(Br)c3)c2cc1OCCC | 9.76
24 | CNc1ccc2ncnc(Nc3cccc(Br)c3)c2c1 | 8.39
25 | Cc1cccc(Nc2ncnc3ccncc23)c1NCCCn1ccnc1 | 8.45
26 | CN1CCN(CCCNc2c(Br)cccc2Nc2ncnc3ccncc23)CC1 | 8.30
27 | COc1cc2ncnc(Nc3cccc(C(F)(F)F)c3)c2cc1OC | 9.61
28 | CNc1ccc2ncnc(Nc3cccc(Br)c3)c2n1 | 8.50
29 | Brc1cccc(Nc2ncnc3ccncc23)c1NCCCN1CCOCC1 | 8.72
30 | Cc1cccc(Nc2ncnc3cnc(N(C)C)nc23)c1 | 8.39
31 | CN(C)c1ccc2ncnc(Nc3cccc(Br)c3)c2c1 | 7.07
32 | Cc1cccc(Nc2ncnc3ccncc23)c1NCCCCN(C)C | 8.26
33 | Brc1cccc(Nc2ncnc3ccncc23)c1NCCN1CCOCC1 | 8.49
34 | Brc1cccc(Nc2ncnc3ccncc23)c1NCCc1c[nH]cn1 | 9.04
35 | CN(C)CCCCCNc1c(Br)cccc1Nc1ncnc2ccncc12 | 8.07
36 | Fc1ccc2ncnc(Nc3cccc(Br)c3)c2n1 | 7.35
37 | O=[N+]([O-])c1ccc2c(Nc3cccc(I)c3)ncnc2c1 | 6.26
38 | Brc1cccc(Nc2ncnc3ccncc23)c1NCCCCN1CCOCC1 | 8.26

Continued, values first:

Row | pIC50 | SMILES
39 | 5.31 | CN(C)c1ccc(Nc2ncnc3ccncc23)c(N)c1
40 | 8.14 | NNc1c(Br)cccc1Nc1ncnc2ccncc12
41 | 7.53 | CC(=O)Nc1c(Br)cccc1Nc1ncnc2ccncc12
42 | 7.56 | Brc1cccc(Nc2ncnc3ccccc23)c1
43 | 6.61 | Nc1ccccc1Nc1ncnc2cc(Br)ncc12
44 | 6.92 | Nc1c(Cl)cccc1Nc1ncnc2ccncc12
45 | 7.85 | OCN(CO)c1c(Br)cccc1Nc1ncnc2ccncc12
46 | 9.76 | Oc1cc2ncnc(Nc3cccc(Br)c3)c2cc1O
47 | 8.32 | Oc1ccc2c(Nc3cccc(Br)c3)ncnc2c1
48 | 7.95 | CN(C)c1ccc2c(Nc3cccc(Br)c3)ncnc2c1
49 | 8.11 | Nc1ccc2ncnc(Nc3cccc(Br)c3)c2n1
50 | 7.09 | Ic1cccc(Nc2ncnc3ccccc23)c1
51 | 5.27 | Nc1cc2ncnc(Nc3ccccc3N)c2cn1
52 | 7.08 | Clc1ncc2ncnc(Nc3cccc(Br)c3)c2n1
53 | 8.00 | Nc1c(Br)cccc1Nc1ncnc2ccncc12
54 | 8.85 | O=S(=O)(O)CCNc1c(Br)cccc1Nc1ncnc2ccncc12
55 | 8.82 | O=C(O)CNc1c(Br)cccc1Nc1ncnc2ccncc12
56 | 6.88 | COc1cccc(Nc2ncnc3ccncc23)c1N
57 | 7.63 | Clc1cccc(Nc2ncnc3ccccc23)c1
58 | 6.17 | COc1ccc(Nc2ncnc3ccncc23)c(N)c1
59 | 8.05 | CN(C)CCCNc1c(Br)cccc1Nc1ncnc2ccncc12
60 | 7.46 | Brc1cccc(Nc2ncnc3cccnc23)c1
61 | 7.39 | Nc1c(Nc2ncnc3ccncc23)cccc1[N+](=O)[O-]
62 | 7.39 | CN(C)CCN(C)c1c(Br)cccc1Nc1ncnc2ccncc12
63 | 9.03 | OCC(O)CNc1c(Br)cccc1Nc1ncnc2ccncc12 (stereo unspecified)

Row | pIC50 | SMILES
64 | 7.88 | Fc1c(Br)cccc1Nc1ncnc2ccncc12
65 | 8.36 | COc1ccc2ncnc(Nc3cccc(Br)c3)c2n1
66 | 7.59 | Nc1cc(Br)ccc1Nc1ncnc2ccncc12
67 | 6.79 | CN(C)c1cc2ncnc(Nc3cccc(Br)c3)c2cc1N
68 | 7.39 | Clc1cc2c(Nc3cccc(Br)c3)ncnc2cn1
69 | 9.61 | OCCNc1c(Br)cccc1Nc1ncnc2ccncc12
70 | 8.18 | Nc1cc2c(Nc3cccc(Br)c3)ncnc2cc1Cl
71 | 8.58 | COc1cc2c(Nc3cccc(Br)c3)ncnc2cn1
72 | 5.74 | CN(C)c1cccc(Nc2ncnc3ccncc23)c1N
73 | 7.15 | Nc1c(O)cccc1Nc1ncnc2ccncc12
74 | 6.90 | Fc1cc2c(Nc3cccc(Br)c3)ncnc2cn1
75 | 7.45 | Brc1cccc(Nc2ncnc3ccncc23)c1
76 | 5.43 | COc1cc2ncnc(Nc3ccccc3N)c2cn1
77 | 7.53 | COc1cc2ncnc(Nc3ccccc3)c2cc1OC
78 | 7.34 | CN(C)CCNc1c(Br)cccc1Nc1ncnc2ccncc12
79 | 7.79 | CN(CC(=O)O)c1c(Br)cccc1Nc1ncnc2ccncc12
80 | 7.76 | Cc1cccc(Nc2ncnc3cnc(N)nc23)c1
81 | 9.21 | O=C(O)CCNc1c(Br)cccc1Nc1ncnc2ccncc12
82 | 7.40 | COc1c(Br)cccc1Nc1ncnc2ccncc12
83 | 8.49 | CN(CC(O)CO)c1c(Br)cccc1Nc1ncnc2ccncc12 (stereo unspecified)
84 | 6.07 | Nc1c(F)cccc1Nc1ncnc2ccncc12
85 | 8.58 | CN(CCO)c1c(Br)cccc1Nc1ncnc2ccncc12
86 | 5.32 | Nc1cc(C(F)(F)F)ccc1Nc1ncnc2ccncc12
87 | 6.60 | Nc1ccccc1Nc1ncnc2ccncc12

test system: not listed separately; assay: cells; details: T-cell

Row | SMILES | pIC50
88 | Cc1cccc(Cl)c1Nc1nc2ccc(N3CCN(C)CC3)cc2n2cncc12 | 6.62
89 | Cc1cccc(Cl)c1Nc1nc2ccc(N3CCN(C=O)CC3)cc2n2cncc12 | 6.28
90 | CC(=O)Nc1ccc2nc(Nc3c(C)cccc3Cl)c3cncn3c2c1 | 5.85
91 | Cc1cccc(Cl)c1Nc1nc2ccc(NCCN(C)C)cc2n2cncc12 | 6.06
92 | COc1cccc2nc(Nc3c(C)cccc3Cl)c3cncn3c12 | 5.64
93 | Cc1cccc(Cl)c1Nc1nc2ccc(N3CCCN(C)CC3)cc2n2cncc12 | 6.27
94 | CCN1CCN(c2ccc3nc(Nc4c(C)cccc4Cl)c4cncn4c3c2)CC1 | 6.57
95 | COc1cc2nc(Nc3c(C)cccc3Cl)c3cncn3c2cc1N1CC(C)NC(C)C1 (stereo unspecified) | 6.12
96 | COc1cc2c(cc1NCCN1CCOCC1)nc(Nc1c(C)cccc1Cl)c1cncn12 | 6.55
97 | Cc1cccc(Cl)c1Nc1nc2ccc(N3CC(C)NC(C)C3)cc2n2cncc12 (stereo unspecified) | 6.47
98 | Cc1cccc(Cl)c1Nc1nc2ccc(N3CCOCC3)cc2n2cncc12 | 6.11
99 | Cc1cccc(Cl)c1Nc1nc2cc(N3CCOCC3)ccc2n2cncc12 | 6.00
100 | Cc1cccc(Cl)c1Nc1nc2ccc(N3CCNCC3)cc2n2cncc12 | 6.42
101 | Cc1cccc(Cl)c1Nc1nc2cc(N3CC(C)NC(C)C3)ccc2n2cncc12 (stereo unspecified) | 6.24
102 | Cc1cccc(Cl)c1Nc1nc2ccc(N)cc2n2cncc12 | 5.80
103 | CCNc1ccc2nc(Nc3c(C)cccc3Cl)c3cncn3c2c1 | 5.66
104 | Cc1cccc(Cl)c1Nc1nc2cc(NCCN(C)C)ccc2n2cncc12 | 6.28
105 | COc1ccc2c(c1)nc(Nc1c(C)cccc1Cl)c1cncn12 | 5.59

Row | SMILES | pIC50
106 | COc1ccc2nc(Nc3c(C)cccc3Cl)c3cncn3c2c1 | 5.85
107 | Cc1cccc(Cl)c1Nc1nc2cc(N3CCNCC3)ccc2n2cncc12 | 6.00
108 | CCN(CC)c1ccc2c(c1)nc(Nc1c(C)cccc1Cl)c1cncn12 | 5.77
109 | Cc1cccc(Cl)c1Nc1nc2ccc(NCCN3CCOCC3)cc2n2cncc12 | 5.89
110 | Cc1cccc(Cl)c1Nc1nc2ccc(NCCCN3CCOCC3)cc2n2cncc12 | 6.12
111 | Cc1cccc(Cl)c1Nc1nc2cc(O)c(O)cc2n2cncc12 | < 5.05
112 | COc1cc2c(cc1NCCN(C)C)nc(Nc1c(F)cccc1Cl)c1cncn12 | 6.62
113 | Cc1cccc(Cl)c1Nc1nc2cc3c(cc2n2cncc12)OCO3 | 5.70
114 | Cc1cccc(Cl)c1Nc1nc2cc(N3CCN(C)CC3)ccc2n2cncc12 | 6.14
115 | Cc1cccc(Cl)c1Nc1nc2cc3c(cc2n2cncc12)OCCO3 | 5.66
116 | Cc1cccc(Cl)c1Nc1nc2ccc(N(C)C)cc2n2cncc12 | 5.70
117 | COc1cc2c(cc1NCCN(C)C)nc(Nc1c(C)cccc1Cl)c1cncn12 | 6.72
118 | Cc1cccc(Cl)c1Nc1nc2cc(NCCCN(C)C)ccc2n2cncc12 | 6.32
119 | COc1cc2nc(Nc3c(C)cccc3C)c3cncn3c2cc1OC | 5.96
120 | CCN(CC)c1ccc2nc(Nc3c(C)cccc3Cl)c3cncn3c2c1 | 5.59
121 | COc1cc2c(cc1OCCN1CCOCC1)nc(Nc1c(C)cccc1Cl)c1cncn12 | 6.33
122 | COc1cc2nc(Nc3c(C)cccc3Cl)c3cncn3c2cc1OC | 6.17

test system: not listed separately; assay: Inhibition of CDK2/Cyclin A; details: not given

Row | pIC50 | SMILES
123 | 4.11 | C=CCOc1nc(N)nc2nc[nH]c12
124 | 4.66 | Nc1nc(OCC2=CCCCC2)c2nc[nH]c2n1
125 | 4.33 | C=CCCCCOc1nc(N)nc2[nH]cnc12
126 | 4.68 | C=C(CC)COc1nc(N)nc2[nH]cnc12
127 | 4.47 | C=C(COc1nc(N)nc2nc[nH]c12)c1ccccc1
128 | 4.17 | CCCOc1nc(N)nc2[nH]cnc12
129 | 4.12 | CC(C)Oc1[nH]c(N)nc2ncnc1-2
130 | 4.16 | CC/C=C/CCOc1nc(N)nc2[nH]cnc12
131 | 4.51 | Nc1nc(OCC2=CCCC2)c2nc[nH]c2n1

Reference: ChEMBL document CHEMBL1143196, “Discovery of kinase inhibitors by high-throughput docking and scoring based on a transferable linear interaction energy model” (J Med Chem, 2008)
